Reference: patent US20090143361A1, “Pyrido[3,2-E]Pyrazines, Process For Preparing The Same, And Their Use As Inhibitors Of Phosphodiesterase 10” (ELBION GMBH, priority 2007, published 2009)
Like-named read-outs stand apart in the source and are kept apart here.

Molecular target: T1, human recombinant PDE10A (Homo sapiens, UniProt Q9Y233)
T1 construct: made in house; host or cells: SF21 insect cells (baculovirus)
Assay: Inhibition of PDE10, human recombinant PDE10A ([3H]-cAMP SPA)
Format: biochemical
Protocol: The gene was than inserted into a baculovirus vector, ligated with the baculovirus DNA. The enzyme-protein was expressed in SF21-cells. The enzyme was isolated from these cells by harvesting the cells by a centrifugation at 200 g to collect the cells. The cells were resuspended in 50 mM Tris-HCl/5 mM MgCl2 buffer (pH=7.4) and lysed by a sonication of the cells. The cytosolic PDE10A was obtained by a centrifugation at 48000 g for 1 h in the supernatant and stored at −70° C. PDE10 activity was determined in a one step procedure in microtiterplates. […] Nonspecific activity was tested without the enzyme. The reaction was initiated by addition of the substrate solution and was carried out at 37° C. for 30 minutes. Enzymatic activity was stopped by addition of 25 μl YSi-SPA-beads (Amersham-Pharmacia). One hour later the mixture was measured in a liquid scintillation counter for microtiterplates (Microbeta Trilux). To pipette the incubation mixture a robot Biomek (Fa. Beckman) is used. […] For determination of IC50 values the Hill-plot, 2-parameter-model, was used.

T1 sequence (Q9Y233 1-779 isoform Q9Y233-1): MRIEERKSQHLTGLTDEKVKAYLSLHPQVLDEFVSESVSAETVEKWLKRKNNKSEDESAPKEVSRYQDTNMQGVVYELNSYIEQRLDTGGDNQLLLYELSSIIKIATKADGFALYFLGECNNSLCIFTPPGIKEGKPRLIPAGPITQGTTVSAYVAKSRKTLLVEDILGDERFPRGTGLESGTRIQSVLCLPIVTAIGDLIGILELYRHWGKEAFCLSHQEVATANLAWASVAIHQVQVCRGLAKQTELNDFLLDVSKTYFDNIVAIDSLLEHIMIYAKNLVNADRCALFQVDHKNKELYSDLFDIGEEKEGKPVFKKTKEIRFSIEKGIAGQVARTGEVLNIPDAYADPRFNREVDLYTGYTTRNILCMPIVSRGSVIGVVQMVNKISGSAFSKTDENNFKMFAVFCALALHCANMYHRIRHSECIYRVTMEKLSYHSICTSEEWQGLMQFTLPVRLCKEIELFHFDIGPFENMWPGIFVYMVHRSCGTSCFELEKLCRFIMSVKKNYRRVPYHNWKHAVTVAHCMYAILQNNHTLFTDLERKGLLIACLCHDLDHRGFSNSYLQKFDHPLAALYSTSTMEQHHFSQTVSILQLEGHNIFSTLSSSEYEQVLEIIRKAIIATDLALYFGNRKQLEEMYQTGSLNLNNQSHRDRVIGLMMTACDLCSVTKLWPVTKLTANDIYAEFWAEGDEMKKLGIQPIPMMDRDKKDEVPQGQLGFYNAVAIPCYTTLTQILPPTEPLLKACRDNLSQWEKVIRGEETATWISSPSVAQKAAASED

Row | Compound | IC50 (Table 9, read-out: hPDE10 IC50) [nM] | further results
1 | Cc1c(F)cccc1-c1nc(C)c2c(C)nc3ccc(OCC4CC4)nc3n12 [Example 136, 2-(cyclopropylmethoxy)-9-(3-fluoro-2-methylphenyl)-6,7-dimethylimidazo[1,5-a]pyrido[3,2-e]pyrazine] | < 10 | 
2 | COc1ccc2nc(C)c3c(C)nc(-c4cc(F)cc(C(N)=O)c4)n3c2n1 [Example 129, 3-fluoro-5-(2-methoxy-6,7-dimethylimidazo[1,5-a]pyrido[3,2-e]pyrazin-9-yl)benzamide] | < 10 | 
3 | COc1ccc2nc(C)c3c(C)nc(-c4ccc(Cl)cc4F)n3c2n1 [Example 17, 9-(4-Chloro-2-fluorophenyl)-2-methoxy-6,7-dimethylimidazo[1,5-a]pyrido[3,2-e]pyrazine] |  | IC50 (Table 7, read-out: Human PDE10 (IC50 nM)): 10 to 100 nM
4 | Cc1ccc(C(N)=O)cc1-c1nc(C)c2c(C)nc3ccc(OCC4CC4)nc3n12 [Example 149, 3-[2-(cyclopropylmethoxy)-6,7-dimethylimidazo[1,5-a]pyrido[3,2-e]pyrazin-9-yl]-4-methylbenzamide] | < 10 | 
5 | Cc1ccccc1-c1nc(C)c2c(C)nc3ccc(OCC(F)F)nc3n12 [Example 153, 2-(2,2-difluoroethoxy)-6,7-dimethyl-9-(2-methylphenyl)imidazo[1,5-a]pyrido[3,2-e]pyrazine] | < 10 | 
6 | Cc1ccccc1-c1nc(C)c2c(C)nc3ccc(OCc4ccncc4)nc3n12 [Example 158, 6,7-dimethyl-9-(2-methylphenyl)-2-(pyridin-4-ylmethoxy)imidazo[1,5-a]pyrido[3,2-e]pyrazine] | < 10 | 
7 | Cc1nc(-c2cccc(C(N)=O)c2)n2c1c(C)nc1ccc(OCC3CC3)nc12 [Example 143, 3-[2-(cyclopropylmethoxy)-6,7-dimethylimidazo[1,5-a]pyrido[3,2-e]pyrazin-9-yl]benzamide] | < 10 | 
8 | Cc1nc(-c2ccc(F)cc2Cl)n2c1c(C)nc1ccc(OCC3CC3)nc12 [Example 138, 9-(2-chloro-4-fluorophenyl)-2-(cyclopropylmethoxy)-6,7-dimethylimidazo[1,5-a]pyrido[3,2-e]pyrazine] | < 10 | 
9 | Cc1nc(-c2cccc(S(N)(=O)=O)c2)n2c1c(C)nc1ccc(OCC3CC3)nc12 [Example 148, 3-[2-(cyclopropylmethoxy)-6,7-dimethylimidazo[1,5-a]pyrido[3,2-e]pyrazin-9-yl]benzenesulfonamide] | > 100 | 
10 | Cc1ccc(C(=O)O)cc1-c1nc(C)c2c(C)nc3ccc(OCC4CC4)nc3n12 [Example 146, 3-[2-(cyclopropylmethoxy)-6,7-dimethylimidazo[1,5-a]pyrido[3,2-e]pyrazin-9-yl]-4-methylbenzoic acid] | > 100 | 
11 | CCCc1nc(C)c2c(C)nc3ccc(=O)[nH]c3n12 [Example 46, 6,7-Dimethyl-9-propylimidazo[1,5-a]pyrido[3,2-e]pyrazin-2(1H)-one] |  | IC50 (Table 8, cell marked Human PDE10, read-out: IC50 (nM) (Human PDE10)): > 100 nM

More lines, main results first:

Row | IC50 (Table 9, read-out: hPDE10 IC50) [nM] | Compound | further results
12 | 10 to 100 | COc1ccc2nc(C#N)c3c(C)nc(-c4cccnc4)n3c2n1 [Example 171, 2-methoxy-7-methyl-9-pyridin-3-ylimidazo[1,5-a]pyrido[3,2-e]pyrazine-6-carbonitrile] | 
13 | < 10 | COc1ccc2nc(C)c3c(C)nc(-c4cccnc4F)n3c2n1 [Example 175, 9-(2-fluoropyridin-3-yl)-2-methoxy-6,7-dimethylimidazo[1,5-a]pyrido[3,2-e]pyrazine] | 
14 | 10 to 100 | COc1ccc2nc(C)c3c(C)nc(-c4cc[nH]c4)n3c2n1 [Example 181, 2-methoxy-6,7-dimethyl-9-(1H-pyrrol-3-yl)imidazo[1,5-a]pyrido[3,2-e]pyrazine] | 
15 | < 10 | COc1ccc2nc(C#N)c3c(C)nc(-c4cc(C(N)=O)ccc4F)n3c2n1 [Example 166, 3-(6-cyano-2-methoxy-7-methylimidazo[1,5-a]pyrido[3,2-e]pyrazin-9-yl)-4-fluorobenzamide] | 
16 | > 100 | COc1ccc2nc(C)c3c(C)nc(-c4ccc(N(C)C)nc4)n3c2n1 [Example 178, 5-(2-methoxy-6,7-dimethylimidazo[1,5-a]pyrido[3,2-e]pyrazin-9-yl)-N,N-dimethylpyridin-2-amine] | 
